Tested on: ischemic skeletal muscle (gastrocnemius-plantaris-soleus group)
Test: Contractility of the skeletal muscle after chronic ischemia (PVD fatigue model)
Assay type: in vivo, male Wistar rats
Settings: PVD fatigue model: 6 mg/kg po, 7 days; after 5 minutes of stimulation, 24 h after last administration
Source text: B) Action on the contractility of the skeletal muscle after chronic ischemia Ideas about the pathophysiology of chronic peripheral arterial occlusive disease have changed in recent years as interest has shifted increasingly from the macrocirculation to the microcirculation=disorders in the microcirculation manifest themselves in an inadequate supply of substrates with consequent tissue ischemia, which in turn leads to impairment of the function of the extremity in question. The compounds according to the invention were tested for their function-improving action by means of measurements of the contractile force in the ischemic skeletal muscle using the experimental set-up described below. The experimental animals used were male Wistar rats with a body weight of 380 to 410 g. With the animals under hexobarbital narcosis (®[…] Sodium, 200 mg/kg body weight ip), a monolateral ligature of the right femoral artery was made in the groin. After dusting with penicillin sulfonamide powder for the antibiotic protection of the wound, the small surgical wound was closed and the animals were observed continuously until fully awake. One week later, oral administration of the substance with a stomach tube was started (6 mg/kg body weight, carboxymethyl cellulose sodium suspension) and was continued for 7 days (single administration per day, ca. 7.30 am to 8.30 am). The contractile force was measured 24 h after the last administration of the substance so as to exclude acute effects, the experimental protocol being as follows: The animals were narcotized with ®Nembutal (pentobarbital sodium, 35 mg/kg body weight ip), the muscles of the extremity in question were exposed (gastrocnemius-plantaris-soleus group) and the tendon was connected to a force transducer with a preload of 50 g. A superfusion with isotonic solution (37° C.) served to avoid dehydration and cooling. The mean arterial blood pressure was recorded continuously via a cannulated carotid artery with the aid of a hemodynamometer in order to monitor the physiological state of the animals during the experiment. All the animals breathed spontaneously through an inserted endotracheal tube. After these preparations had been made, the muscle was caused to contract by direct electrical stimulation (2.5 mA, 2 Hz) (Stimulator I, Hugo Sachs, Federal Republic of Germany). The measurement parameter used for the action of the preparation was the absolute contractile force in grams after 5 minutes of stimulation. The change in the contractile force in comparison with the ischemic control muscle is given as the percentage change at this time (see Table 2).

| Structure (SMILES) | Change in the contractile force in comparison with the ischemic control muscle |
| --- | --- |
| O=c1[nH]c2c(c(=O)[nH]1)CN(Cc1ccccc1)CC2 [Compound 23] | +129% |
| Cl.Cn1c(=O)[nH]c2c(c1=O)CN(Cc1ccccc1)CC2 [Compound 2, 6-Benzyl-3-methyl-5,6,7,8-tetrahydro-1H-pyrido[4,3-d]-pyrimidine-2,4-dione hydrochloride] | +136% |
| CCn1c2c(c(=O)n(C)c1=O)CN(Cc1ccccc1Cl)CC2 [Compound 16] | +148% |
| C=C(C)CN1CCc2[nH]c(=O)n(C)c(=O)c2C1 [Compound 26] | +114% |
| Cn1c(=O)[nH]c2c(c1=O)CN(CCCO)CC2 [Compound 37] | +45% |
| Cn1c(=O)[nH]c2c(c1=O)CN(C(C(=O)O)c1ccccc1Cl)CC2 (stereo not shown) [Compound 20] | +137% |
| Cn1c(=O)[nH]c2c(c1=O)CN(CCO)CC2 [Compound 8, 6-(2-Hydroxyethyl)-3-methyl-5,6,7,8-tetrahydro-1H-pyrido[4,3-d]pyrimidine-2,4-dione] | +151% |
